Experiment [1] has as its target T1, NAD-dependent protein deacetylase sirtuin-3, mitochondrial (Homo sapiens) (UniProt Q9NTG7).
T1 sequence (whole entry): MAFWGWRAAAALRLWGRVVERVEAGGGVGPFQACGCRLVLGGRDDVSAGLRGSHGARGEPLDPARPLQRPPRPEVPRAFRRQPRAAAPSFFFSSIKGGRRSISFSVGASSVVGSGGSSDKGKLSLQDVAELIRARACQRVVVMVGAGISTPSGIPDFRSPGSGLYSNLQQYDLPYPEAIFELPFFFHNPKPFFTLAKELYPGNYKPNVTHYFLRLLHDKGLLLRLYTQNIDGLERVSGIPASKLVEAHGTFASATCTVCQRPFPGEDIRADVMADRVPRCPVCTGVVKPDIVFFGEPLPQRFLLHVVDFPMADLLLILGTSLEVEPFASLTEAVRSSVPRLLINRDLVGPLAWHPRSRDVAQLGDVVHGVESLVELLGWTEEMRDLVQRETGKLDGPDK
Description: Inhibition of recombinant His-tagged SIRT3 (unknown origin) using Fluor de Lys acetylated KI179 as substrate at 200 uM incubated for 5 mins followed by enzyme addition measured after 1 hr by fluorescence assay relative to control.

The target in experiment [2] is T2, NAD-dependent protein deacetylase sirtuin-1 (Homo sapiens) (UniProt Q96EB6).
T2 sequence (whole entry): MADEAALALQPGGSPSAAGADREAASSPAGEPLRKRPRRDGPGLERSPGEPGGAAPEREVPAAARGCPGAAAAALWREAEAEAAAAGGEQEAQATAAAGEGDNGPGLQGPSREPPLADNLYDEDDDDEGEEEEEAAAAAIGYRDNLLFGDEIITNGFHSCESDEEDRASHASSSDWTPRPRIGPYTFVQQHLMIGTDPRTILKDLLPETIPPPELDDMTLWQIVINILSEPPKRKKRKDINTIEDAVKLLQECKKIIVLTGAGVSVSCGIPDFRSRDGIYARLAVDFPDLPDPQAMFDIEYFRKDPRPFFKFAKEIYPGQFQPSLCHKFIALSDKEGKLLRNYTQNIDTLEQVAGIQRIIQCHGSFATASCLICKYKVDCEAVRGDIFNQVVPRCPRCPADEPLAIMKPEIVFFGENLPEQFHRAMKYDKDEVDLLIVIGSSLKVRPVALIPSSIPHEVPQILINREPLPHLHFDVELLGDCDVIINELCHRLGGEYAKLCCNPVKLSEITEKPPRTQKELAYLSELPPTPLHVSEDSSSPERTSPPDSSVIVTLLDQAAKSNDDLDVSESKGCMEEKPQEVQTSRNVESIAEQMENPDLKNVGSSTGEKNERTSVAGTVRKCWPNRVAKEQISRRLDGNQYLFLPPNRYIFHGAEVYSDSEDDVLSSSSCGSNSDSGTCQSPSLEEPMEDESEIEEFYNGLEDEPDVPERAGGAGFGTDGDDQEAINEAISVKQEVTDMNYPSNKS
In words: Inhibition of recombinant GST-tagged SIRT1 (unknown origin) using Fluor de Lys acetylated KI177 as substrate at 200 uM incubated for 5 mins followed by enzyme addition measured after 1 hr by fluorescence assay relative to control.

For experiment [3], the target named is T3, NAD-dependent protein deacetylase sirtuin-2 (Homo sapiens) (UniProt Q8IXJ6).
T3 sequence (whole entry): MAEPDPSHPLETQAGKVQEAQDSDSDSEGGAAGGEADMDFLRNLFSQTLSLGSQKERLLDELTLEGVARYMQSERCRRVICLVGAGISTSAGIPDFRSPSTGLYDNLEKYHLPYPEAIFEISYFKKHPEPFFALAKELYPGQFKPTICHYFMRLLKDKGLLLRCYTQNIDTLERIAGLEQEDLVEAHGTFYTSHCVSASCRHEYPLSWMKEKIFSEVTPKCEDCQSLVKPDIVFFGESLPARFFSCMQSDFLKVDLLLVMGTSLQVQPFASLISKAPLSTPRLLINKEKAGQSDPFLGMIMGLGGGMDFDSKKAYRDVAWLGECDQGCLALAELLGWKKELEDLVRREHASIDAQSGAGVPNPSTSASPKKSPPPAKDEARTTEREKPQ
In words: Inhibition of recombinant GST-tagged SIRT2 (unknown origin) using Fluor de Lys acetylated KI179 as substrate at 200 uM incubated for 5 mins followed by enzyme addition measured after 1 hr by fluorescence assay relative to control.

Activity calls are given as the source filed them. The rule behind the calls is not given here.

For orientation: inhibition means the drop in the measured response relative to a control, in per cent. Take `O=C1C(Cl)=C(Nc2cccc(O)c2)C(=O)N1CCc1ccccc1`: the inhibition in experiment [1] was determined as 72%.
Regarding `O=C(CSc1ncnc2c1oc1ccccc12)Nc1cccc(O)c1`, the inhibition entry in experiment [2] is “inactive”. For the same molecule, the inhibition in experiment [3] was determined as 35%; in experiment [1], 39%.
For `O=C1CC(N2CCN(c3ccc(F)cc3)CC2)C(=O)N1Cc1ccccc1` (stereo not given), in experiment [1], the inhibition came out at 6.9%.
On the same count and under the same terms, next, `O=C1CC(N2CCN(c3cccc(C(F)(F)F)c3)CC2)C(=O)N1c1cccc(Cl)c1` (stereo not given): 13%; `O=C(Cc1ccccc1)Nc1ccc2oc(-c3ccccc3F)nc2c1`: 16%; `O=C(CCC(=O)Nc1ccc(F)c(Cl)c1)Nc1ccc(F)c(Cl)c1`: 1.9%.
The same measure, in the same setting: then `COc1ccc(CCNC2CC(=O)N(CCc3ccc(OC)c(OC)c3)C2=O)cc1OC` (stereo not given), with 16%; and `Cc1ccc(N2C(=O)CC(N3CCN(c4ccc(F)cc4)CC3)C2=O)cc1` (stereo not given), with 6.6%.
The same measure, in the same setting: then `CCOc1ccc(N2C(=O)CC(N3CCN(C(=O)c4ccccc4)CC3)C2=O)cc1` (stereo not given), with 5%; and `CCOc1ccc(N2C(=O)CC(N3CCN(C(=O)c4cccnc4)CC3)C2=O)cc1` (stereo not given), with 10%.
On to `COc1cccc(-c2noc(CCC(=O)Nc3ccc(NC(C)=O)cc3)n2)c1`, for which, in experiment [1], the inhibition amounted to 6.8%.
Turning to `CC(=O)Nc1ccc(NC(=O)CCC(=O)OCC(=O)c2cccc([N+](=O)[O-])c2)cc1`, in experiment [1], the inhibition was found to be 6.7%.
Regarding `NS(=O)(=O)c1ccc(CCNC2CC(=O)N(c3ccc(Cl)c(Cl)c3)C2=O)cc1` (stereo not given), the inhibition in experiment [1] is 11%.
Same read-out and setting: then `O=C(/C=C/c1ccccc1)Nc1ccc2oc(-c3ccccc3F)nc2c1`, with 38%; and `O=C(Cc1ccc(Cl)cc1)Nc1ccc2oc(-c3ccccc3Br)nc2c1`, with 32%; and `O=C(Cc1ccc(Cl)cc1)Nc1ccc2oc(-c3ccccc3F)nc2c1`, with 17%.
For the molecule `O=C(Cc1ccccc1)Nc1ccc2oc(-c3cc(F)c(F)cc3Cl)nc2c1`, the inhibition in experiment [1] came out at 41%.
With `COc1ccc(N2C(=O)CC(N3CCN(c4ccccc4O)CC3)C2=O)cc1` (stereo not given), the inhibition in experiment [1] worked out at 8.4%.
Turning to `O=C(NCC1CCN(Cc2ccccc2Cl)CC1)Nc1cccc(Cl)c1`, the inhibition in experiment [1] was found to be 7.5%.
The same measure, in the same setting: then `O=C(CSCC(=O)Nc1ccc2ccccc2c1)NCc1ccccc1`, with 6.3%.
`O=C(Cc1ccccc1)Nc1ccc2oc(-c3cccc(Cl)c3Cl)nc2c1`: the inhibition in experiment [2] was 19%; in experiment [3], 40%; in experiment [1], 48%.
For `O=C(Cc1ccccc1)Nc1ccc2oc(-c3ccc(Cl)cc3Cl)nc2c1`, in that order: 27%, 72% and 71%.
Turning to `O=C(Cc1ccccc1)Nc1ccc2oc(-c3ccccc3Br)nc2c1`, the inhibition in experiment [1] came out at 33%.
As to `Cc1ccc(NC(=O)NCC2CCN(Cc3cc(C)ccc3Cl)CC2)c(C)c1`, in experiment [1], the inhibition was 7.5%.
Take `NS(=O)(=O)c1ccc(NC(=O)COC(=O)CN2C(=O)C(=O)c3ccccc32)cc1`: in experiment [1], the inhibition amounted to 34%.
Regarding `COc1ccc(N2C(=O)CC(NCCc3ccc(S(N)(=O)=O)cc3)C2=O)cc1` (stereo not given), the inhibition in experiment [1] stood at 7.6%.
Take `O=C1CC(N2CCN(c3ccc([N+](=O)[O-])cc3)CC2)C(=O)N1c1ccccc1` (stereo not given): in experiment [1], the inhibition worked out at 74%.
On the same count and under the same terms, next, `Cc1cccc(-c2nc3cc(NC(=O)Cc4ccccc4)ccc3o2)c1`: 32%.
Still for that read-out and setting: next, `O=C(Cc1ccccc1)Nc1ccc2oc(-c3cccc(Cl)c3)nc2c1`: 17%.
As for `O=C(c1ccccc1)N1CCN(C2CC(=O)N(c3cccc(Cl)c3)C2=O)CC1` (stereo not given), in experiment [1], the inhibition amounted to 11%.
On to `O=C(Cc1ccccc1)Nc1ccc2oc(-c3ccc(F)cc3Cl)nc2c1`, for which, in experiment [1], the inhibition turned out to be 13%.
Consider `Cc1cccc(CN2CCC(CNC(=O)NCc3ccc(F)cc3)CC2)c1`, for which the inhibition in experiment [1] came to 5.6%.
`O=C(/C=C/c1ccccc1)Nc1ccc2oc(-c3ccccc3Cl)nc2c1`: the inhibition in experiment [2] stood at 27%; in experiment [3], 78%; in experiment [1] it was 48%.
In the case of `O=C1CC(N2CCN(c3cccc(C(F)(F)F)c3)CC2)C(=O)N1c1ccc(Cl)cc1` (stereo not given), in experiment [1], the inhibition amounted to 20%.
On the same count and under the same terms, then `COc1ccc(N2C(=O)CC(N3CCN(c4ccc(S(C)(=O)=O)cc4)CC3)C2=O)cc1` (stereo not given), with 5.6%; and `O=C1CC(N2CCN(c3ccc(F)cc3)CC2)C(=O)N1c1ccc2c(c1)OCO2` (stereo not given), with 6.4%.
Same read-out and setting: next, `O=C1CC(N2CCN(c3ccc(Cl)cc3)CC2)C(=O)N1c1ccc(F)cc1` (stereo not given): 9.2%.
Take `O=C1CC(N2CCC(Cc3ccccc3)CC2)C(=O)N1c1ccc(F)cc1` (stereo not given): the inhibition in experiment [1] is 15%.
For the molecule `O=C(Cc1ccccc1)Nc1ccc2oc(-c3ccc(Cl)cc3)nc2c1`, the inhibition in experiment [1] came out at 13%.
Consider `O=C(Nc1ccc(Nc2ccccc2)cc1)c1c(Cl)cccc1Cl`, for which, in experiment [1], the inhibition came to 22%.
Take `Cc1ccccc1CC1CCN(CCCNC(=O)Nc2ccccc2)CC1`: the inhibition in experiment [1] turned out to be 10%.
On to `COc1cccc(-c2nc3cc(NC(=O)Cc4ccccc4)ccc3o2)c1`, for which, in experiment [1], the inhibition amounted to 44%.
For the molecule `O=C(Cc1ccccc1)Nc1ccc2oc(-c3cc(Cl)ccc3Cl)nc2c1`, the inhibition was 33% in experiment [2], 73% in experiment [3] and 65% in experiment [1].
Consider `O=C1CC(N2CCN(c3cccc(C(F)(F)F)c3)CC2)C(=O)N1c1ccc(I)cc1` (stereo not given), for which the inhibition in experiment [1] was 11%.
As for `O=C(Cc1ccccc1)Nc1ccc2oc(-c3ccccc3Cl)nc2c1`, the inhibition is 17% in experiment [2], 44% in experiment [3] and 51% in experiment [1].
Regarding `Cc1ccc(-c2nc3cc(NC(=O)Cc4ccccc4)ccc3o2)cc1`, the inhibition in experiment [1] was 17%.
For the molecule `O=C1CC(N2CCN(c3ccc(O)cc3)CC2)C(=O)N1c1ccccc1` (stereo not given), in experiment [1], the inhibition came out at 6.5%.
Consider `Cc1cccc(N2C(=O)CC(N3CCN(c4cccc(C(F)(F)F)c4)CC3)C2=O)c1` (stereo not given), for which the inhibition in experiment [1] came to 13%.

The values above are taken from ChEMBL document CHEMBL2380241, “Identification of novel SIRT3 inhibitor scaffolds by virtual screening” (Bioorg Med Chem Lett, 2013).
